Assay results published in PMC10353390, “Biological and Structural Analyses of New Potent Allosteric Inhibitors of HIV-1 Integrase” (Antimicrobial Agents and Chemotherapy, 2023).
Read-outs that look alike come from different tables or passages of the source.

Assays:
NL4-3 HIV-1 strain = assay: Multiple-round infection assay in MT4 cells, NL4-3; type: cell-based; conditions: MT4 cells
[1] = target: CCD of HIV-1 IN and IBD of LEDGF/p75 (Human immunodeficiency virus type 1 group M subtype B, UniProt P12497); assay: biochemical
[2] = test system: NL4-3 HIV-1 with INLAI-selected IN single point mutations; type: cell-based
[3] = test system: VSV-G-pseudotyped NL4-3Δenv-luc; assay: microbe, parasite or virus in culture; type: cell-based, HIV-1
HXB2 HIV-1 strain = assay: Multiple-round infection assay in MT4 cells, HXB2; type: cell-based; conditions: Human immunodeficiency virus 1, HXB2; multiple-round infection, MT4 cells; mean ± SD, n > 5; read-out: EC50 HXB2
Summary of the method: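 Antiviral read-out was CellTiter-Glo luminescent viability of exponentially growing MT4 cells (10^6/mL). Cells were exposed to HIV-1 for 2 h at an MOI of 0.001 while compound was present at varying concentrations.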

[4] = test system: primary HIV-1 isolates with polymorphisms at IN positions 124 and 125; assay: Multiple-round infection of MT4 cells with primary HIV-1 isolates polymorphic at IN positions 124 and 125; type: cell-based; conditions: primary isolate
Description: Next, we evaluated the potency of the BDM-2 series of INLAIs against several primary HIV-1 isolates with polymorphisms at IN positions 124 and 125.
(§1) MT4 cells growing exponentially at the density of 10^6/mL were infected with HIV-1 strain NL4-3 at a multiplicity of infection (MOI) of 0.001 for 2 h in the presence of different concentrations of compounds, and the CellTiter-Glo luminescent reagent (Promega) was used to quantify cell viability as described previously ([12]).

[5] = Cytotoxicity assay in MT4 cells; type: cell-based; conditions: human, MT4 cells (proliferating human T-cell line), CellTiter-Glo
Description: Growth inhibition was monitored in a proliferating human T-cell line (MT4) with different concentrations of compounds, using the CellTiter-Glo luminescent reagent (Promega), as previously described ([12]).

[6] = test system: recombinant NL4-3 viruses with polymorphisms at IN positions 124 and 125; assay: Multiple-round infection of MT4 cells with recombinant NL4-3 viruses polymorphic at IN positions 124 and 125; type: cell-based, HIV-1
Description: Located on the HIV-1 IN CCD dimerization interface, the principal INLAI binding pocket overlaps with a hot spot of amino acid sequence polymorphism involving IN residues 124 and 125 ([16]). To test if the new INLAIs maintained antiviral activity against major polymorphisms, we introduced all major combinations of residues found in circulating HIV-1 strains at positions 124 and 125 into NL4-3 HIV-1 molecular clone. In total, we evaluated 15 such combinations that collectively covered 98% of all HIV-1 clade polymorphisms involving these positions ([48]). To gauge effects on the antiviral activity, we calculated the EC50 fold change (FC) relative to wild type NL4-3 HIV-1 strain that features Thr124 and Thr125 (TT; specific polymorphisms are referred to by a single letter amino acid code).
as §1

[7] = test system: HIV-1 strains resistant to INSTIs, NRTIs, NNRTIs or PIs; type: cell-based
Summary of the method: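 Cell viability (CellTiter-Glo luminescence) served as read-out in MT4 cells at 10^6/mL, infected 2 h at MOI 0.001 in presence of graded compound concentrations. Viruses: resistance-mutation recombinants in NL4-3 backbone plus resistant clinical isolates.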

[8] = target: HIV-1 IN-LEDGF/p75 interaction (Human immunodeficiency virus type 1 group M subtype B, UniProt P12497); assay: biochemical
HIV-1 IN = target: T1, HIV-1 IN (Human immunodeficiency virus type 1 group M subtype B, UniProt P12497); assay: HTRF IN multimerization assay; type: biochemical; conditions: mean ± SD
T1 construct: made in house
Description: A key property of INLAIs is the ability to promote HIV-1 IN homo-multimerization ([39][–][42]). […] The maximal signal (plateau) in our IN aggregation assay corresponds to the highest HTRF signal increase under saturating INLAI concentration, relative to baseline level. Thus, MUT916, MUT884, MUT871, and MUT872 increased HIV-1 IN aggregation 3.7 to 4.4-fold, while BDM-2, BI-224436, and S-I-82 did so 5 to 6-fold (Table 1).

[9] = test system: lab-adapted and clinical HIV-1 isolates; assay: Infection assays in primary T CD4+ lymphocytes; type: cell-based; conditions: Human immunodeficiency virus 1, Lymphocyte
[10] = INSTI-resistant, NL4-3 background

Cc1ccc(C2CC2)c(-c2ccc3c(c2C)CCCO3)c1[C@H](OC1CC1)C(=O)O [MUT884]
EC90 (NL4-3 HIV-1 strain; Human immunodeficiency virus 1, NL43, multiple-round infection, from dose response curves, read-out: EC90 NL4-3): 23 ± 13 nM
EC50 (NL4-3 HIV-1 strain; Human immunodeficiency virus 1, NL43, multiple-round infection, mean ± SD, n > 5, read-out: EC50 NL4-3): 15 ± 5 nM
Selectivity index CC50/EC50 NL4-3 (NL4-3 HIV-1 strain): 5,200
IC50 [1]: 82 ± 21 nM
EC50 fold change compared to wild type NL4-3, A128T [2]: 5
EC50 fold change compared to wild type NL4-3, H171Q [2]: 1
EC50 fold change compared to wild type NL4-3, N222K [2]: 3
EC50 fold change compared to wild type NL4-3, T174I [2]: 12
EC50 fold change compared to wild type NL4-3, Y99H [2]: 2
EC50 ratio (single/multiple-round infection) [3]: 260
EC50 ([3]; Human immunodeficiency virus 1, NL43, MT4, read-out: EC50 in single-round infection): 3900 ± 800 nM
EC50 (HXB2 HIV-1 strain): 6.3 ± 1.1 nM
Fold change in EC50 relative to parental NL4-3, CAM2BBY (CRF02) ([4]; IN 124/125 AA): 1
Fold change in EC50 relative to parental NL4-3, E0836M4 (D) ([4]; IN 124/125 AA): 1
Fold change in EC50 relative to parental NL4-3, KER2008 (A) ([4]; IN 124/125 AA): 0.5
Fold change in EC50 relative to parental NL4-3, NP1525 (CRF01) ([4]; IN 124/125 AA): 1
Fold change in EC50 relative to parental NL4-3, NP1695 (CRF02) ([4]; IN 124/125 AA): 2
Fold change in EC50 relative to parental NL4-3, TZA125 (C) ([4]; IN 124/125 AA): 0.3
Fold change in EC50 relative to parental NL4-3, KSM4030 (A) ([4]; IN 124/125 GA): 1
Fold change in EC50 relative to parental NL4-3, vGA (C) ([4]; IN 124/125 GA): 5
Fold change in EC50 relative to parental NL4-3, 99ET14 (C) ([4]; IN 124/125 NA): 1
Fold change in EC50 relative to parental NL4-3, NP1538 (B) ([4]; IN 124/125 NA): 3
Fold change in EC50 relative to parental NL4-3, vNA_1 (B) ([4]; IN 124/125 NA): 3
Fold change in EC50 relative to parental NL4-3, vNA_2 (CRF02) ([4]; IN 124/125 NA): 4
Fold change in EC50 relative to parental NL4-3, vNV (B) ([4]; IN 124/125 NV): 2
Fold change in EC50 relative to parental NL4-3, vSA_1 (B) ([4]; IN 124/125 SA): 2
Fold change in EC50 relative to parental NL4-3, vSA_2 (CRF02) ([4]; IN 124/125 SA): 2
Fold change in EC50 relative to parental NL4-3, vTA_1 (B) ([4]; IN 124/125 TA): 1
Fold change in EC50 relative to parental NL4-3, vTA_2 (CRF02) ([4]; IN 124/125 TA): 2
CC50 [5]: 78000 ± 12000 nM
Fold change in EC50 relative to parental NL4-3, AA ([6]; recombinant NL4-3, IN 124/125 AA): 0.4
Fold change in EC50 relative to parental NL4-3, AM ([6]; recombinant NL4-3, IN 124/125 AM): 0.2
Fold change in EC50 relative to parental NL4-3, AT ([6]; recombinant NL4-3, IN 124/125 AT): 1
Fold change in EC50 relative to parental NL4-3, AV ([6]; recombinant NL4-3, IN 124/125 AV): 0.5
Fold change in EC50 relative to parental NL4-3, GA ([6]; recombinant NL4-3, IN 124/125 GA): 1
Fold change in EC50 relative to parental NL4-3, GT ([6]; recombinant NL4-3, IN 124/125 GT): 2
Fold change in EC50 relative to parental NL4-3, NA ([6]; recombinant NL4-3, IN 124/125 NA): 2
Fold change in EC50 relative to parental NL4-3, NT ([6]; recombinant NL4-3, IN 124/125 NT): 1
Fold change in EC50 relative to parental NL4-3, NV ([6]; recombinant NL4-3, IN 124/125 NV): 1
Fold change in EC50 relative to parental NL4-3, SA ([6]; recombinant NL4-3, IN 124/125 SA): 1
Fold change in EC50 relative to parental NL4-3, ST ([6]; recombinant NL4-3, IN 124/125 ST): 1
Fold change in EC50 relative to parental NL4-3, TA ([6]; recombinant NL4-3, IN 124/125 TA): 1
Fold change in EC50 relative to parental NL4-3, TM ([6]; recombinant NL4-3, IN 124/125 TM): 0.2
Fold change in EC50 relative to parental NL4-3, TV ([6]; recombinant NL4-3, IN 124/125 TV): 1
Fold change in EC50 relative to NL4-3, E92Q [7, 10]: 1
Fold change in EC50 relative to NL4-3, G140S [7, 10]: 1
Fold change in EC50 relative to NL4-3, G140S/Q148H [7, 10]: 1
Fold change in EC50 relative to NL4-3, N155H [7, 10]: 1
Fold change in EC50 relative to NL4-3, Q148H [7, 10]: 1
Fold change in EC50 relative to NL4-3, Y143R [7, 10]: 0.5
Fold change in EC50 relative to NL4-3, NLAY351717 ([7]; NRTI-resistant clone): 1
Fold change in EC50 relative to NL4-3, NLAY351753 ([7]; NRTI/NNRTI-resistant clone): 1
Fold change in EC50 relative to NL4-3, K103N/Y181C ([7]; NRTI/NNRTIs group, NL4-3 background): 1
Fold change in EC50 relative to NL4-3, ARP-4595 ([7]; PI-resistant virus): 1
Fold change in EC50 relative to NL4-3, ARP-4596 ([7]; PI-resistant virus): 1
Fold change in EC50 relative to NL4-3, ARP-11801 ([7]; PI-resistant virus): 3
Fold change in EC50 relative to NL4-3, ARP-11803 ([7]; PI-resistant virus): 2
Fold change in EC50 relative to NL4-3, ARP-11807 ([7]; PI-resistant virus): 1
Fold change in EC50 relative to NL4-3, ARP-11808 ([7]; PI-resistant virus): 2
IC50 [8]: 62 ± 9 nM
AC50 (HIV-1 IN; concentration for 50% maximum activation of multimerization): 22 ± 4 nM
IN multimerization Plateau (HIV-1 IN; maximum multimerization reached versus baseline): 400 ± 71%
EC50 ([9]; read-out: EC50 33913N (B)): 5.8 ± 3.2 nM
EC50 ([9]; read-out: EC50 HXB2 (B)): 10 ± 6 nM
EC50 ([9]; read-out: EC50 KER2008 (A)): 19 ± 3 nM
EC50 ([9]; read-out: EC50 NL4-3 (B)): 15 ± 4 nM
EC50 ([9]; read-out: EC50 NP1525 (CRF01_AE)): 12 ± 3 nM
EC50 ([9]; read-out: EC50 NP1538 (B)): 41 ± 2 nM
